From ChEMBL document CHEMBL1157539, “Thousands of chemical starting points for antimalarial lead identification” (Nature, 2010)

system: Plasmodium falciparum; assay: GSK_TCMDC: Inhibition of Plasmodium falciparum 3D7 in whole erythrocytes, using parasite LDH activity as an index of growth.; assay type: functional, organism-based; settings: Plasmodium falciparum, 3D7

Point of comparison: O=C(Nc1ccncc1)c1cn(-c2ccccc2)nc1-c1cccs1, XC50 977 nM. Against it:
- Cc1ccc(Nc2nc(N/N=C/c3cc4c(cc3Br)OCO4)nc(Nc3ccc([N+](=O)[O-])cc3)n2)cc1C — within 1.5-fold, 750 nM
- CCN(CC)CCN(Cc1ccc(-c2ccc(C(F)(F)F)cc2)cc1)C(=O)Cn1c(SCc2ccc(F)cc2)nc(=O)c2ccccc21 — within 1.5-fold, 773 nM
- COc1ccc2nc3cc(Cl)ccc3c(NCCCCCCNc3c4ccc(Cl)cc4nc4ccc(OC)cc34)c2c1 — within 1.5-fold, 661 nM
- O=C(Cc1ccccc1)NC(CCN1CCC(NC(=O)c2ccc(Cl)cc2)CC1)c1ccc(Cl)c(Cl)c1 (stereo not given) — within 1.5-fold, 916 nM
- COc1ccc2nccc([C@@H](O)CN3CCC(NC(=O)C(c4ccsc4)N4CCN(c5ccccc5OC)CC4)CC3)c2c1 (stereo not given in full) — within 1.5-fold, 832 nM
- COc1ccc(C2CNCc3c2cc(OC)c(OC)c3Cl)cc1 (stereo not given) — within 1.5-fold, 731 nM
- O=C(Nc1ccc(Cl)cc1)c1cccc(CN2CCCN(Cc3cccc(O)c3)CC2)c1 — within 1.5-fold, 957 nM
- COC(=O)c1ccc(-c2ccc(-c3cccnc3)cc2C)cc1 — within 1.5-fold, 662 nM
- N#CCCN1CCN(Cc2ccc(-c3cccc(-c4nc5cc(F)ccc5[nH]4)c3)cc2)CC1 — within 1.5-fold, 972 nM
- O=C(Cn1c(CCc2cccc(F)c2F)cc(=O)c2cccnc21)N(CCn1ccnc1)Cc1ccc(-c2ccc(C(F)(F)F)cc2)cc1 — within 1.5-fold, 672 nM
- Clc1cccc(Cl)c1CCNCC1CCN(CC2CCCCC2)CC1 — 4.6-fold lower, 212 nM
- CC(=O)c1ccc2nc[nH]c(=O)c2c1 — within 1.5-fold, 722 nM
- Cc1ccc(-c2nc(N3CCN(C(=O)c4ccco4)CC3)c3ccc(Cl)cc3n2)cc1 — within 1.5-fold, 1210 nM
- CCC(C)NCC(O)(c1ccc(Cl)cc1)c1ccc(Cl)cc1 (stereo not given) — within 1.5-fold, 843 nM
- Cc1cc(N[C@@H](Cc2ccccc2)C(=O)NC2CCCC2)nc(NCc2ccccc2C)n1 — within 1.5-fold, 1230 nM
- CCOC(=O)c1nc(-c2ccccc2)[nH]c1NC(=S)NC1CCCCC1 — within 1.5-fold, 836 nM
- CO/C(=C\C=C\c1cc2cc(Cl)c(Cl)cc2[nH]1)C(=O)NCCCN1CCN(c2cccc(OC)c2)CC1 — within 1.5-fold, 845 nM
- CCN(CC)CCNC(=O)c1ccc(NC(=O)c2oc3c(Cl)cccc3c2C)cc1 — within 1.5-fold, 703 nM
- COc1ccc(Nc2nccc(-c3ccc(NC(=O)c4cc5cc(F)ccc5[nH]4)cc3)n2)cc1 — 1.6-fold lower, 630 nM
- NC1CCN(c2nc(NCCCc3ccc(O)cc3)nc(NCc3cccc4ccccc34)n2)CC1 — within 1.5-fold, 724 nM
- Cn1cnc2c(SCc3ccc(OCc4ccccc4)cc3)ncnc21 — 1.8-fold lower, 557 nM
- CCCCN1CCCC[C@H]1[C@@H](O)c1ccnc2ccc(OCC)cc12 — within 1.5-fold, 773 nM
- COc1ccc2nccc(CCC3(O)CCC(NCc4cc5c(cc4F)SCC(=O)N5)CC3)c2c1 (stereo not given) — within 1.5-fold, 675 nM
- COc1cc(F)c2nccc([C@@H](O)CN3CCC(NCc4nc5cccc(F)c5[nH]4)CC3)c2c1 — within 1.5-fold, 847 nM
- Cc1cc(N[C@@H](Cc2ccccc2)C(=O)Nc2ccccc2)nc(NCCc2cccnc2)n1 — within 1.5-fold, 1340 nM
- Cc1cc(N2CCC(NS(=O)(=O)c3ccccc3)CC2)nc(Nc2cccc(C#N)c2)n1 — within 1.5-fold, 1350 nM
- Cc1nc(C)c(-c2ccc(Oc3ccc(OC(F)(F)F)cc3)cc2)c(OC(=O)c2ccccc2)c1Cl — 5.4-fold lower, 182 nM
- CC(C)c1ccc(NC(=O)c2ccc(C(=O)NC3CCN(Cc4ccsc4)C3)cc2)cc1 (stereo not given) — within 1.5-fold, 1030 nM
- CCCCCCCn1c2c(c(=N)c3c1CCC3)CCCC2 — 9.6-fold lower, 102 nM
- Cc1ccc2c(Cc3cnc(N)nc3N)cc(C)c(N)c2n1 — within 1.5-fold, 1420 nM
- CN(C)CCOc1ccc(NC(=O)NC(C)(C)c2nc(-c3ccc(Cl)c(O)c3)c(-c3ccncc3)[nH]2)cc1 — 8.6-fold lower, 113 nM
- COc1cc(-c2nnc(SCC(=O)Nc3cc(C)on3)n2C)cc(OC)c1O — 5.5-fold lower, 177 nM
- C=C[C@]1(C)C[C@@H](OC(=O)NC(=O)CCCS(=O)(=O)c2nnc(C)s2)[C@]2(C)[C@H](C)CC[C@]3(CCC(=O)[C@H]32)[C@@H](C)[C@@H]1O — 31-fold lower, 31.5 nM
- O=C(Nc1ccc(-c2nc3ccccc3[nH]2)cc1)c1cncc(Br)c1 — within 1.5-fold, 814 nM
- Cc1cc(C(=O)NC2CCN(Cc3ccccc3)CC2)ccc1-c1nc2ccc(C(F)(F)F)cc2[nH]1 — within 1.5-fold, 891 nM
- O=C(C=Cc1ccccc1)Nc1ccc(C#CC=Cc2ccc(NC(=O)C=Cc3ccccc3)cc2)cc1 — within 1.5-fold, 847 nM
- CC(C)(CNCc1ccc(F)c(F)c1)c1nc(-c2ccc(Cl)c(O)c2)c(-c2ccncc2)[nH]1 — within 1.5-fold, 660 nM
- CCN(CC)CCCC(C)N=c1cc(C=Cc2ccccc2Cl)[nH]c2cc(Cl)ccc12 (stereo not given) — within 1.5-fold, 805 nM
- Cc1cc(O)c(CN(C)Cc2ccc3c(c2)OCO3)cc1C(C)C — within 1.5-fold, 738 nM
- Cc1cc(OCc2ccncc2)cc2c1C(=O)CC(C)(C)O2 — 5.3-fold lower, 183 nM
- O=C(NCc1cccc(Br)c1)c1ccc(CNC2CCN(Cc3ccccc3)CC2)cc1 — within 1.5-fold, 875 nM
- CNCCCNCc1ccc(-c2ccc(F)c(Cl)c2)o1 — within 1.5-fold, 752 nM
- COc1cc(Cc2cnc3nc(N)nc(N)c3c2C)cc(OC)c1OC — 15-fold lower, 64.2 nM
- O=C(/C=C/c1ccccc1Cl)Nc1ccc(Br)c(OCCN2CCC(O)(c3ccccc3)CC2)c1 — 2-fold lower, 483 nM
- N#Cc1ccc2c(c1)CCN(CCC1CCC(NC(=O)/C=C/c3cc(Br)cs3)CC1)CC2 (stereo not given) — within 1.5-fold, 997 nM
- O=C(/C=C/c1ccc(Cl)c(Cl)c1)NCCCCCN1CCC(NC(=O)Nc2cc(Cl)ccc2Cl)CC1 — 2.3-fold lower, 433 nM
- COc1ccc(C2CC(=O)C3=C(C2)NC(C)=C(C(=O)OC2CCCC2)C3c2cccc(O)c2)cc1OC (stereo not given) — 4.5-fold lower, 216 nM
- CC(=O)Oc1ccc(C(=O)Oc2ccccc2C#CC#N)cc1OC(C)=O — 3.1-fold lower, 320 nM
- CCOc1ccc2nc(NC(=O)c3csnn3)sc2c1 — 2.1-fold lower, 476 nM
- C[C@@H](Oc1cc(-n2cnc3ccc(OCC4CCN(S(C)(=O)=O)CC4)cc32)sc1C(N)=O)c1ccccc1C(F)(F)F — within 1.5-fold, 1020 nM
- O=C(Nc1ccc(N2CCNCC2)nc1)c1oc(-c2ccccc2)nc1C(F)(F)F — within 1.5-fold, 981 nM
- CS(=O)(=O)CCNCc1cccc(-c2cc3c(Nc4ccc(OCc5cccc(F)c5)c(Cl)c4)ncnc3s2)c1 — 4.9-fold lower, 198 nM
- CN(C)S(=O)(=O)n1ncc2c3c(N)nc(N)nc3ccc21 — 5.5-fold lower, 178 nM
- CN1CC[C@@H](Oc2cc(NC(=O)Nc3ccc(Cl)c(C(F)(F)F)c3)ccc2Cl)C1 — within 1.5-fold, 994 nM
- O=C(Nc1cccc(-c2ccc(-c3nc4ccccc4[nH]3)s2)c1)c1ccncc1 — within 1.5-fold, 778 nM
- NC1CCN(c2nc(NCCCc3ccc(O)cc3)nc(NCc3ccccc3-c3ccccc3)n2)CC1 — within 1.5-fold, 678 nM
- CN(C)c1ccc(NC2=NC(N)=NC(C)(C)N2)cc1 — 4.4-fold lower, 223 nM
- CC[C@H]1CN2CC[C@@H]1C[C@H]2[C@H](O)c1cc(N2CCOCC2)nc2ccc(OC)cc12 — 8.3-fold lower, 118 nM
- Cc1cc(Nc2cccc(C#N)c2)nc(Nc2ccccc2C)n1 — within 1.5-fold, 861 nM
- Cc1c(C(=O)N2CCCC(C(F)(F)F)C2)sc2cccc(F)c12 (stereo not given) — 1.6-fold lower, 599 nM
- CCOCCCNc1sc(S(=O)(=O)c2ccccc2)nc1S(=O)(=O)c1ccc(C)cc1 — within 1.5-fold, 809 nM
- O=C1CCCN1CCCNCc1cccc(-c2ccc(-c3nc4cc(C(F)(F)F)ccc4[nH]3)cc2)c1 — 3.3-fold lower, 300 nM
- O=[N+]([O-])c1cccc(-c2nc(-c3ccc(Br)cc3)[nH]c2-c2ccc(Br)cc2)c1 — within 1.5-fold, 759 nM
- O=C(NC1CCC(CN2CCC(c3c[nH]c4ccccc34)CC2)CC1)[C@H]1Cc2ccccc2CN1 (stereo not given in full) — within 1.5-fold, 948 nM
- Fc1cc(Cl)ccc1Nc1ccnc2cc(I)ccc12 — within 1.5-fold, 1130 nM
- O=C(Nc1ccc(-c2nc3cc4ccccc4cc3[nH]2)cc1)c1cccc(Br)c1 — 2.7-fold lower, 363 nM
- CCNc1cc(C(=O)N[C@@H](Cc2ccccc2)[C@H](O)CNC2CCC(C)(C)CC2)cc(N2CCCCS2(=O)=O)c1 — 1.5-fold lower, 647 nM
- CCc1nc2nc(C)cc(Nc3ccc(F)c(Cl)c3)n2n1 — within 1.5-fold, 974 nM
- Cc1nc(-c2ccc(-c3ccc(C(=O)Nc4ccc(I)c(OCCN5CCCC5)c4)cc3)c(C)c2)no1 — within 1.5-fold, 964 nM
